Test results published in patent US9137996B2, “Fungicidal alkyl- and aryl-substituted 2[-2-chloro-4-(dihalo-phenoxy)-phenyl]-1-[1,2,4]triazol-1-yl-ethanol compounds” (BASF SE, priority 2011, dated 2015).

Tested on: Phakopsora pachyrhizi
Test: Protective control of soy bean rust on soy beans (Phakpa P1), green house
Assay type: in vivo, Phakopsora pachyrhizi on soy bean seedlings
Details: 300 ppm active substance, sprayed 1 day before inoculation, assessed after fourteen days; untreated plants 90% infected
Protocol: The spray solutions were prepared in several steps:
The stock solution were prepared: a mixture of acetone and/or dimethylsulfoxide and the wetting agent/emulsifier Wettol, which is based on ethoxylated alkylphenoles, in a relation (volume) solvent-emulsifier of 99 to 1 was added to 25 mg of the compound to give a total of 5 ml. Water was then added to total volume of 100 ml. This stock solution was diluted with the described solvent-emulsifier-water mixture to the given concentration. 1. Protective control of soy bean rust on soy beans caused by Phakopsora pachyrhizi (Phakpa P1)
Leaves of pot-grown soy bean seedlings were sprayed to run-off with an aqueous suspension, containing the concentration of active ingredient or their mixture as described below. The plants were allowed to air-dry. The trial plants were cultivated for 1 day in a greenhouse chamber at 23-27° C. and a relative humidity between 60 and 80%.Then the plants were inoculated with spores of Phakopsora pachyrhizi. To ensure the success the artificial inoculation, the plants were transferred to a humid chamber with a relative humidity of about 95% and 20 to 24 C for 24 h. The trial plants were cultivated for fourteen days in a greenhouse chamber at 23-27° C. and a relative humidity between 60 and 80%. The extent of fungal attack on the leaves was visually assessed as % diseased leaf area.

## CC(O)(Cn1cncn1)c1ccc(Oc2ccc(Cl)cc2Cl)cc1Cl (stereo not shown) [I-1, 2-[2-chloro-4-(2,4-dichlorophenoxy)phenyl]-1-(1,2,4-triazol-1-yl)propan-2-ol]
  infection (extent of fungal attack, % diseased leaf area): 10%
